According to PubChem BioAssay AID1745844 (Carcinogenic Potency Database (CPDB), 2022):
Activity calls are given as the source filed them. The rule behind the calls is not given here.

Tested on: rodent lifetime carcinogenesis bioassay, tumor incidence TD50
Test: carcinogenic potency in animals, long-term in vivo studies, CPDB compilation (AID 1745844)
[1] = mouse, strain B6AKF1, females, oral dosing, site: any site (literature study), lesion: several types, types named in the paper, dosed 76 weeks, study length 76 weeks
[2] = mouse, strain B6AKF1, females, oral dosing, site: liver, lesion: hepatoma, dosed 76 weeks, study length 76 weeks
[3] = mouse, strain B6AKF1, females, oral dosing, site: lung, lesion: adenoma, dosed 76 weeks, study length 76 weeks
[4] = mouse, strain B6AKF1, males, oral dosing, site: any site (literature study), lesion: several types, types named in the paper, dosed 76 weeks, study length 76 weeks
[5] = mouse, strain B6AKF1, males, oral dosing, site: liver, lesion: hepatoma, dosed 76 weeks, study length 76 weeks
[6] = mouse, strain B6AKF1, males, oral dosing, site: lung, lesion: adenoma, dosed 76 weeks, study length 76 weeks
[7] = mouse, strain B6C3F1, females, oral dosing, site: any site (literature study), lesion: several types, types named in the paper, dosed 76 weeks, study length 76 weeks
[8] = mouse, strain B6C3F1, females, oral dosing, site: liver, lesion: hepatoma, dosed 76 weeks, study length 76 weeks
[9] = mouse, strain B6C3F1, males, oral dosing, site: any site (literature study), lesion: several types, types named in the paper, dosed 76 weeks, study length 76 weeks
[10] = mouse, strain B6C3F1, males, oral dosing, site: liver, lesion: hepatoma, dosed 76 weeks, study length 76 weeks
[11] = mouse, strain B6C3F1, males, oral dosing, site: lung, lesion: several types, types named in the paper, dosed 76 weeks, study length 76 weeks
[12] = mouse, strain B6C3F1, females, oral dosing, site: lung, lesion: adenoma, dosed 76 weeks, study length 76 weeks

Nc1ccc(N(CCO)CCO)cc1
inactive: TD50 (rat, strain F344/DuCrj, females, in feed, site: liver, lesion: hepatocellular adenoma, dosed 104 weeks, study length 104 weeks) 7310 mg/kg/day | carcinogen call (rat, strain F344/DuCrj, males, in feed, site: liver, lesion: hepatocellular adenoma, dosed 104 weeks, study length 104 weeks) negative | carcinogen call (rat, strain F344/DuCrj, males, in feed, site: liver, lesion: hepatocellular carcinoma, dosed 104 weeks, study length 104 weeks) negative

[Cu+2].[O-]c1cccc2cccnc12.[O-]c1cccc2cccnc12
inactive: TD50 [1] 2490 mg/kg/day | carcinogen call [2] negative | carcinogen call [3] negative | TD50 [4] 11200 mg/kg/day | TD50 [5] 967 mg/kg/day | carcinogen call [6] negative | TD50 [7] 2490 mg/kg/day | carcinogen call [8] negative | carcinogen call (mouse, strain B6C3F1, females, oral dosing, site: lung, lesion: several types, types named in the paper, dosed 76 weeks, study length 76 weeks) negative | TD50 [9] 2050 mg/kg/day | carcinogen call [10] negative | carcinogen call [11] negative

P
inactive: TD50 (rat, strain Fischer 344, females, inhaled, site: liver, lesion: hepatocellular adenoma, dosed 104 weeks, study length 104 weeks) 53.1 mg/kg/day | carcinogen call (rat, strain Fischer 344, females, inhaled, site: liver, lesion: one or several types, types not named, dosed 52 weeks, study length 52 weeks) negative | TD50 (rat, strain Fischer 344, males, inhaled, site: liver, lesion: hepatocellular adenoma, dosed 104 weeks, study length 104 weeks) 5.69 mg/kg/day | carcinogen call (rat, strain Fischer 344, males, inhaled, site: liver, lesion: hepatocellular carcinoma, dosed 104 weeks, study length 104 weeks) negative | carcinogen call (rat, strain Fischer 344, males, inhaled, site: liver, lesion: one or several types, types not named, dosed 52 weeks, study length 52 weeks) negative | carcinogen call (rat, strain Sprague-Dawley, females, in feed, site: any site (literature study), lesion: one or several types, types not named, dosed 52 weeks, study length 52 weeks) negative | carcinogen call (rat, strain Sprague-Dawley, females, in feed, site: any site (literature study), lesion: several types, types named in the paper, dosed 104 weeks, study length 104 weeks) negative | carcinogen call (rat, strain Sprague-Dawley, males, in feed, site: any site (literature study), lesion: one or several types, types not named, dosed 52 weeks, study length 52 weeks) negative | carcinogen call (rat, strain Sprague-Dawley, males, in feed, site: any site (literature study), lesion: several types, types named in the paper, dosed 104 weeks, study length 104 weeks) negative

CC(C)CCCCCOC(=O)COc1ccc(Cl)cc1Cl
inactive: carcinogen call [1] negative | carcinogen call [2] negative | carcinogen call [3] negative | carcinogen call [4] negative | carcinogen call [5] negative | carcinogen call (mouse, strain B6AKF1, males, oral dosing, site: lung, lesion: several types, types named in the paper, dosed 76 weeks, study length 76 weeks) negative | TD50 [7] 24.6 mg/kg/day | carcinogen call [8] negative | TD50 [12] 34 mg/kg/day | TD50 [9] 17.7 mg/kg/day | TD50 [10] 31.7 mg/kg/day | carcinogen call [11] negative

CCN(CC)C(=S)[S-].CCN(CC)C(=S)[S-].[Cd+2]
inactive: TD50 [1] 47.5 mg/kg/day | carcinogen call [2] negative | carcinogen call [3] negative | carcinogen call [4] negative | carcinogen call [5] negative | carcinogen call [6] negative | TD50 [7] 18 mg/kg/day | carcinogen call [8] negative | TD50 [12] 57.4 mg/kg/day | TD50 [9] 6.2 mg/kg/day | TD50 [10] 16.7 mg/kg/day | TD50 (mouse, strain B6C3F1, males, oral dosing, site: lung, lesion: adenoma, dosed 76 weeks, study length 76 weeks) 25.9 mg/kg/day

CCOc1ccc(NC(N)=O)cc1
active: TD50 (rat, strain Osborne-Mendel, both sexes, in feed, site: liver, lesion: several types, types named in the paper, dosed 104 weeks, study length 104 weeks) 537 mg/kg/day

CCCCCC
inactive: carcinogen call (mouse, strain B6C3F1, males, inhaled, site: liver, lesion: several types, types named in the paper, dosed 105 weeks, study length 105 weeks) negative | carcinogen call (rat, strain Fischer 344, females, inhaled, site: nasal mucosa, lesion: one or several types, types not named, dosed 105 weeks, study length 105 weeks) negative | carcinogen call (rat, strain Fischer 344, males, inhaled, site: nasal mucosa, lesion: one or several types, types not named, dosed 105 weeks, study length 105 weeks) negative
9460 mg/kg/day: TD50 (mouse, strain B6C3F1, females, inhaled, site: pituitary gland, lesion: several types, types named in the paper, dosed 105 weeks, study length 105 weeks)
10300 mg/kg/day: TD50 (mouse, strain B6C3F1, females, inhaled, site: pituitary gland, lesion: adenoma, dosed 105 weeks, study length 105 weeks)
84800 mg/kg/day: TD50 (mouse, strain B6C3F1, females, inhaled, site: liver, lesion: hepatocellular carcinoma, dosed 105 weeks, study length 105 weeks)
active: TD50 (mouse, strain B6C3F1, females, inhaled, site: liver, lesion: several types, types named in the paper, dosed 105 weeks, study length 105 weeks) 30300 mg/kg/day

NNc1ccc(C(=O)O)cc1
1140 mg/kg/day: TD50 (mouse, strain Swiss albino, females, in drinking water, site: lung, lesion: several types, types named in the paper, dosed 121 weeks, study length 121 weeks)
597 mg/kg/day: TD50 (mouse, strain Swiss albino, males, in drinking water, site: lung, lesion: adenoma, dosed 120 weeks, study length 120 weeks)
1170 mg/kg/day: TD50 (mouse, strain Swiss albino, females, in drinking water, site: lung, lesion: adenoma, dosed 121 weeks, study length 121 weeks)
11200 mg/kg/day: TD50 (mouse, strain Swiss albino, females, in drinking water, site: lung, lesion: adenocarcinoma, dosed 121 weeks, study length 121 weeks)
675 mg/kg/day: TD50 (mouse, strain Swiss albino, males, in drinking water, site: lung, lesion: several types, types named in the paper, dosed 120 weeks, study length 120 weeks)
inactive: carcinogen call (mouse, strain Swiss, females, by gavage, site: lung, lesion: one or several types, types not named, dosed 40 weeks, study length 55 weeks) negative
active: TD50 (mouse, strain Swiss albino, females, in drinking water, site: aorta and large arteries, lesion: leiomyoma, dosed 121 weeks, study length 121 weeks) 2660 mg/kg/day | TD50 (mouse, strain Swiss albino, females, in drinking water, site: aorta and large arteries, lesion: leiomyosarcoma, dosed 121 weeks, study length 121 weeks) 1970 mg/kg/day | TD50 (mouse, strain Swiss albino, females, in drinking water, site: aorta and large arteries, lesion: several types, types named in the paper, dosed 121 weeks, study length 121 weeks) 1070 mg/kg/day | TD50 (mouse, strain Swiss albino, males, in drinking water, site: aorta and large arteries, lesion: leiomyoma, dosed 120 weeks, study length 120 weeks) 1490 mg/kg/day | TD50 (mouse, strain Swiss albino, males, in drinking water, site: aorta and large arteries, lesion: leiomyosarcoma, dosed 120 weeks, study length 120 weeks) 609 mg/kg/day | TD50 (mouse, strain Swiss albino, males, in drinking water, site: aorta and large arteries, lesion: several types, types named in the paper, dosed 120 weeks, study length 120 weeks) 380 mg/kg/day

O=C(O)C1C2C=CC(C2)C1(C(=O)O)[N+](=O)[O-] (stereo not given)
348 mg/kg/day: TD50 (mouse, strain B6C3F1, males, in drinking water, site: lung, lesion: papillary tumor, dosed 104 weeks, study length 104 weeks)
5650 mg/kg/day: TD50 (mouse, strain B6C3F1, females, in drinking water, site: lung, lesion: papillary tumor, dosed 104 weeks, study length 104 weeks)
3190 mg/kg/day: TD50 (mouse, strain B6C3F1, females, in drinking water, site: liver, lesion: hyperplastic nodule, dosed 104 weeks, study length 104 weeks)
169 mg/kg/day: TD50 (mouse, strain B6C3F1, females, in drinking water, site: any site (literature study), lesion: several types, types named in the paper, dosed 104 weeks, study length 104 weeks)
1240 mg/kg/day: TD50 (mouse, strain B6C3F1, females, in drinking water, site: liver, lesion: hemangioma, dosed 104 weeks, study length 104 weeks)
2640 mg/kg/day: TD50 (mouse, strain B6C3F1, males, in drinking water, site: liver, lesion: hepatoma, dosed 104 weeks, study length 104 weeks)
153 mg/kg/day: TD50 (mouse, strain B6C3F1, males, in drinking water, site: any site (literature study), lesion: several types, types named in the paper, dosed 104 weeks, study length 104 weeks)
